In paper PMC6149679 (2017):

Columns and labels:
[1] = tested on: poly A–poly U (RNA, polymer) A/U; assay: fluorescence titration (λexc 355 nm); conditions: Na+ (sodium cacodylate, I = 0.05 M); pH 7.0; no emission change
[2] = tested on: poly A–poly U (RNA, polymer) A/U; assay: thermal denaturation, absorbance at 260 nm; conditions: Na+ (sodium cacodylate, I = 0.05 M); pH 7.0; no stabilisation (error ± 0.5 °C); same at pH 5
[3] = tested on: poly AH+-poly AH+ (poly A at pH 5) (RNA, polymer, adenine protonated at pH 5) A; assay: fluorescence titration (λexc 355 nm); conditions: Na+ (sodium cacodylate, I = 0.05 M), emission of 2 did not change
[4] = tested on: poly A (RNA, polymer) A; assay: fluorescence titration (λexc 355 nm), Scatchard; conditions: Na+ (sodium cacodylate, I = 0.05 M); pH 7.0; n fixed at 0.2; polynucleotide as phosphates; per base
[5] = tested on: poly A–poly U (RNA, polymer) A/U; assay: fluorescence titration (λexc 355 nm), Scatchard; conditions: Na+ (sodium cacodylate, I = 0.05 M); pH 5.0; n fixed at 0.2; polynucleotide as phosphates; per base

Row | binding [1] | binding [2] | binding [3] | log Ks [4] | log Ks [5] | Compound
1 | no | no |  |  |  | COC(=O)C(Cc1cc2cn(CCN3C(=O)c4ccccc4C3=O)c(=O)nc2[nH]1)NC(=O)CNC(=O)[C@H](N)CCCCNC(=O)c1ccc(C(=O)NC(=N)N)[nH]1 (stereo partly shown)
2 | no | no | no | 4.1 | 3.5 | COC(=O)C(Cc1cc2cn(CCN3C(=O)c4ccccc4C3=O)c(=O)nc2[nH]1)NC(=O)CNC(=O)[C@@H](CCCCN)NC(=O)c1ccc(C(=O)NC(=N)N)[nH]1 (stereo partly shown)
